Where two headings read alike, the source gives them in different places.
What was measured:
[1] = Centrifuge Retention Capacity (CRC), EDANA test method No. 441.2-02; assay type: physicochemical
urease (from jack beans) = urease (from jack beans) (Canavalia ensiformis, UniProt P07374); conditions: 23° C.
Experimental: The measurements should be carried out, unless otherwise stated, at an ambient temperature of 23±2° C. and a relative humidity of 50±10%. The water-absorbing polymers are thoroughly commixed prior to the measurement.
To determine the odor-preventing effect, 2 g of each of the compositions produced above were placed in a 100 ml Erlenmeyer flask and admixed with a freshly prepared solution of 30 mg of urease (from jack beans; lyophilized 5 U/mg for urea assay in serum; Merck KGaA, Germany) and 50 ml of 0.9% sodium chloride solution, the sodium chloride solution containing 8.56 g/l of urea, and sealed with a stopper having an internal diffusion tubelet (Dräger® Röhrchen; ammonia 20/a-D, 20 to 1500 ppm*h). The measurement was discontinued after 6 hours. The test was carried out at 23° C.

[2] = 0.0500% by weight in composition with polymer from Example 1 (55 mol % neutralized)
[3] = 0.2000% by weight in composition with polymer from Example 1 (55 mol % neutralized)

Chain of urease (from jack beans) (P07374 whole entry, looked up): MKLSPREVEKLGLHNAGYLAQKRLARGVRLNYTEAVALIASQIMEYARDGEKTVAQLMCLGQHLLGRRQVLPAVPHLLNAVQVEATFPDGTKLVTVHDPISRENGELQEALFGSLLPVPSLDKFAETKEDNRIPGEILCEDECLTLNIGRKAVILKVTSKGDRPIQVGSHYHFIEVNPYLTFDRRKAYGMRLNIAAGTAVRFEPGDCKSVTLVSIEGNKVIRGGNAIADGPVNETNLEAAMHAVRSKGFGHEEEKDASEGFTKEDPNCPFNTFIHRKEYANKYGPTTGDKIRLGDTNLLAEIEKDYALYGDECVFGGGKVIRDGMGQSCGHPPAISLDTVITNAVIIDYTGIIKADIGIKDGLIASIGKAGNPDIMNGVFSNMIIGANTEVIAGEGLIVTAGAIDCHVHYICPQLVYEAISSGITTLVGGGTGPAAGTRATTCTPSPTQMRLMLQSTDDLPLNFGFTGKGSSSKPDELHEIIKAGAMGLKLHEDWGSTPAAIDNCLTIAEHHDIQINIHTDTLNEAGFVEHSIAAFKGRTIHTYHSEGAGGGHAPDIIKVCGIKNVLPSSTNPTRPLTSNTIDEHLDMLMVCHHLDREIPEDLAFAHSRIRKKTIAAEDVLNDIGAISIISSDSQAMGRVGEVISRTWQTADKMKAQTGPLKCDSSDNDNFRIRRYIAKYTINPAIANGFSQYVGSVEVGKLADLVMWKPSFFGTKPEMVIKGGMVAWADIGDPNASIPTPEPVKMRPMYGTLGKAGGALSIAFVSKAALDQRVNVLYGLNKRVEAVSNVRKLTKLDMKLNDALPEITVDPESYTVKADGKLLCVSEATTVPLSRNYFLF

## Oc1ccc(O)cc1 [hydroquinone]
[1]; 0.0050% by weight in composition with polymer from Example 1 (55 mol % neutralized)
  CRC: 28.5 g/g
[1]; [2]
  CRC: 28.7 g/g
[1]; [3]
  CRC: 25.3 g/g
[1]; 1.0000% by weight in composition with polymer from Example 1 (55 mol % neutralized)
  CRC: 23.4 g/g
Urease (from jack beans); 0.0025% by weight in composition, degree of neutralization 55 mol %
  NH3 after 6 hours: 91 ppm
Urease (from jack beans); 0.0025% by weight in composition, degree of neutralization 60 mol %
  NH3 after 6 hours: 182 ppm
Urease (from jack beans); 0.0025% by weight in composition, degree of neutralization 72 mol %
  NH3 after 6 hours: 800 ppm
Urease (from jack beans); 0.0050% by weight in composition, degree of neutralization 55 mol %
  NH3 after 6 hours: 58 ppm
Urease (from jack beans); 0.0050% by weight in composition, degree of neutralization 60 mol %
  NH3 after 6 hours: 78 ppm
Urease (from jack beans); 0.0050% by weight in composition, degree of neutralization 72 mol %
  NH3 after 6 hours: 381 ppm
Urease (from jack beans); 0.0100% by weight in composition, degree of neutralization 55 mol %
  NH3 after 6 hours: 29 ppm
Urease (from jack beans); 0.0100% by weight in composition, degree of neutralization 60 mol %
  NH3 after 6 hours: 45 ppm
Urease (from jack beans); 0.0100% by weight in composition, degree of neutralization 72 mol %
  NH3 after 6 hours: 214 ppm
Urease (from jack beans); 0.0200% by weight in composition, degree of neutralization 55 mol %
  NH3 after 6 hours: 0 ppm
Urease (from jack beans); 0.0200% by weight in composition, degree of neutralization 60 mol %
  NH3 after 6 hours: 10 ppm
Urease (from jack beans); 0.0200% by weight in composition, degree of neutralization 72 mol %
  NH3 after 6 hours: 63 ppm
Urease (from jack beans); 0.0500% by weight in composition, degree of neutralization 55 mol %
  NH3 after 6 hours: 0 ppm
Urease (from jack beans); 0.0500% by weight in composition, degree of neutralization 60 mol %
  NH3 after 6 hours: 0 ppm
Urease (from jack beans); 0.0500% by weight in composition, degree of neutralization 72 mol %
  NH3 after 6 hours: 15 ppm
Urease (from jack beans); 0.2000% by weight in composition, degree of neutralization 55 mol %
  NH3 after 6 hours: 0 ppm
Urease (from jack beans); 0.2000% by weight in composition, degree of neutralization 60 mol %
  NH3 after 6 hours: 0 ppm
Urease (from jack beans); 0.2000% by weight in composition, degree of neutralization 72 mol %
  NH3 after 6 hours: 0 ppm
Urease (from jack beans); 1.0000% by weight in composition, degree of neutralization 55 mol %
  NH3 after 6 hours: 0 ppm
Urease (from jack beans); 1.0000% by weight in composition, degree of neutralization 60 mol %
  NH3 after 6 hours: 0 ppm
Urease (from jack beans); 1.0000% by weight in composition, degree of neutralization 72 mol %
  NH3 after 6 hours: 0 ppm

## [F-].[Na+] [sodium fluoride]
[1]; [2]
  CRC: 29.1 g/g
[1]; 0.0900% by weight in composition with polymer from Example 1 (55 mol % neutralized)
  CRC: 28.5 g/g
[1]; [3]
  CRC: 24.1 g/g
